US6455533B1, “Pharmaceutical compositions for oral administration, comprising an active substance and a cyclodextrin” (UCB, S.A., priority 1997, dated 2002)
Counter-ions that a name gives are not always drawn.

How the values were obtained:
[1] = Competition for the complexation with colored indicators; type: physicochemical; details: complex with β-cyclodextrin
From the text: In this case, the cetirizine comes into competition with the colored indicator for the formation of an inclusion complex. The changes in the visible-range spectrum thus make it possible to determine whether or not cetirizine forms an inclusion complex with cyclodextrin. Two acid-base indicators were used; crystal violet and methyl orange. In the case of the acid-base indicators, the changes in the absorption spectrum due to complexation with a cyclodextrin are often large given that the complexation brings about a change in the pK of the indicator. If the pH of the solution is close to the pK, the addition of a cyclodextrin to an acid-base indicator solution brings about ionization or deionization of the indicator, which is reflected by a change in the color of the solution. Consequently, the absorption maximum in the visible spectrum is displaced as a function of the degree of complexation. […] (J.

[2] = pH 3.4
Experimental: Two solutions A and B were prepared. […] These two solutions were stirred at room temperature until thermodynamic equilibrium was reached.

For `O=C(O)COCCN1CCN(C(c2ccccc2)c2ccc(Cl)cc2)CC1` (stereo not drawn) [cetirizine dihydrochloride, 2-[2-[4-[(4-chlorophenyl)phenylmethyl]-1-piperazinyl]ethoxy]acetic acid], the “association constant (average value)” value ([1]; competition with crystal violet) was 3292 mol⁻¹ and the “association constant (average value)” value ([1]; competition with methyl orange) was 3587 mol⁻¹.

In the case of `OC[C@H]1O[C@@H]2O[C@H]3[C@H](O)[C@@H](O)[C@@H](O[C@H]4[C@H](O)[C@@H](O)[C@@H](O[C@H]5[C@H](O)[C@@H](O)[C@@H](O[C@H]6[C@H](O)[C@@H](O)[C@@H](O[C@H]7[C@H](O)[C@@H](O)[C@@H](O[C@H]8[C@H](O)[C@@H](O)[C@@H](O[C@H]1[C@H](O)[C@H]2O)O[C@@H]8CO)O[C@@H]7CO)O[C@@H]6CO)O[C@@H]5CO)O[C@@H]4CO)O[C@@H]3CO` [β-cyclodextrin], the “increase of solubility (factor)” value [2] is reported as “at least 30”.
